Experimental findings from patent publication US11938212B2, “Skin care compositions” (Colgate-Palmolive Company, priority 2022, dated 2024) are described below.

SMILES strings stand for the structures.

Assay [1] relates to human derived keratinocytes. Kind of assay: ROS detection in H2O2-treated human derived keratinocytes (Example 2: alpha-tocopherol, EGT, sodium PCA). As to conditions: vs F (0.1 wt.% DMSO + 0.3 wt.% H2O2); alpha-tocopherol 0.001%, EGT 0.01%, Na PCA 0.01%; 30 min treatment.
Description: Keratinocytes were treated with exogenous 0.3 wt. % hydrogen peroxide to induce reactive oxygen species (ROS) production. […] Changes in ROS production were assessed using a ROS Detection Assay Kit and fluorescence microplate reader.
Cell Culture Treatment • 500 uL of each treatment sample was directly applied to the 24-well plates and incubated for 30 mins. • Post incubation: each well was washed with the wash buffer (1×) provided. • 250 uL of green Fluorescent (GF) dye containing media (2.5 uL of GF dye/250 uL of media) was then added to each well and incubate for 60 mins. • Post incubation, Fluorescence was read on a microplate reader at 490/525.
Assay [2] deals with human derived keratinocytes. Put plainly: ROS detection in H2O2-treated human derived keratinocytes (Example 3: alpha-tocopherol, EGT, niacinamide). It counts as cell-based. As to conditions: alpha-tocopherol 0.001% as printed, EGT 0.01%, niacinamide 0.01%; for % Decrease in ROS generated in keratinocyte by antioxidant treatment: 0.3 wt.% H2O2; for Fold Change, decrease in ROS generated in keratinocyte by antioxidant treatment (relative to untreated): vs F (0.1% DMSO + 0.3% H2O2). The method, then: Hydrogen peroxide treated cells were then treated with: alpha-tocopherol, ergothioneine and niacinamide, respectively and in combination.
Cellular ROS/Superoxide Detection Assay Kit (Abcam—ab139476)

For the molecule `Cc1c(C)c2c(c(C)c1O)CC[C@@](C)(CCC[C@H](C)CCC[C@H](C)CCCC(C)C)O2` [Alpha-tocopherol, alpha-tocopherol], the “Fold Change, decrease in ROS generated in keratinocyte by antioxidant treatment (relative to untreated)” value (“Fold Change, decrease … (relative to untreated)” below) in assay [1] is listed as 4.21-fold decrease; in assay [2], 0.4-fold fold decrease. For the same molecule, the “% Decrease in ROS generated in keratinocyte by antioxidant treatment” value (from here on “% Decrease in ROS generated”) in assay [2] was determined as 20.79%.

For the molecule `C[N+](C)(C)[C@@H](Cc1c[nH]c(=S)[nH]1)C(=O)[O-]` [EGT, Ergothioneine], the figures for the “Fold Change, decrease … (relative to untreated)” value in assay [1] and in assay [2] were 4.43-fold decrease and 0.31-fold fold decrease, respectively. Moreover, the “% Decrease in ROS generated” value in assay [2] was 15.91%.

Take `NC(=O)c1cccnc1` [Niacinamide, niacinamide]: the “Fold Change, decrease … (relative to untreated)” value in assay [2] is 0.24-fold fold decrease.

`O=C1CCC(C(=O)[O-])N1.[Na+]` (stereo not drawn) [Na PCA, sodium pyrrolidone carboxylic acid]: the “Fold Change, decrease … (relative to untreated)” value in assay [1] is 2.25-fold decrease. The “% Decrease in ROS generated” value in assay [2] was determined as 25.75%.
